{"source": "patent US12681009B2", "about": "“Molecular target in cancer” (The Regents of the University of California, priority 2021, dated 2026)"}
{"target": "T1, MSI2 protein and NUMB-Biotin5′ RNA (Homo sapiens, UniProt Q96DH6)", "T1 construct": "purchased LS Bio G2396", "T1 sequence (Q96DH6 whole entry)": "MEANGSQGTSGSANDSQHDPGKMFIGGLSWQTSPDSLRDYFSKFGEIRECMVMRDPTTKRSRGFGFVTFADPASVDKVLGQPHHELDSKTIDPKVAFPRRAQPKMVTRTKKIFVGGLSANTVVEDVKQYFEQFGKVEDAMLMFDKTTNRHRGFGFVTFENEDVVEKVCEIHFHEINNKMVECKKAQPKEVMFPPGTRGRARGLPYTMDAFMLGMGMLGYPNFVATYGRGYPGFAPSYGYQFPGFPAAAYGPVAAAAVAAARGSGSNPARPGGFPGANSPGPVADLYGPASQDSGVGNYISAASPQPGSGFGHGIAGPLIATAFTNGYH", "assay": "MSI2:NUMB-CTRL RNA competition assay, HTRF (384 well plate)", "format": "binding", "conditions": "competitor RNA titrated from 1000 nM, 2× dilution over 9 points; MSI2 5 nM + NUMB-Biotin5′ 1.25 nM", "procedure": "(§1) MSI2: Numb/U1A:Target RNA Competition assay-HTRF (384 well plate): CisBio HTRF protocol was followed in a total assay volume of 20 μl. 5 μL of NUMB-CTRL RNA/Target-CTRL (4× Conc.) titrated in 10 point in 2× dilution, 5 μL of MSI2 protein/U1A protein (4× Conc.) final concentration of 5 nM was added to each well, 5 μL of NUMB-Biotin5′/Target-Biotin5′ RNA (4× Conc.) final concentration of 1.25 nM and Streptavidin XL665 acceptor (4×) final concentration of 5 nM were added, and incubated for 60 minutes at room temperature. 5 μL of 4×His TB cryptate, final concentration of 0.6 nM was added and incubated at room temperature for 60 minutes and read on envision. The assay buffer contained 150 mM NaCl, 25 mM HEPES pH 7.3, 1 mM DTT, and 0.05% pluronic F-127.\n(§2) NUMB RNA or U1A target RNA was titrated starting from 1000 nM in 2× dilution over 9 points against MSI2 5 nM+NUMB-Biotin5′ 1.25 nM. […] NUMB RNA or U1A target RNA was titrated starting from 1000 nM in 2× dilution over 9 points against U1A 5 nM+U1A Target-Biotin5′ 1.25 nM. […] X axis: Log of CTRL RNA (M); Y axis: (Streptavidin XL665/6His TB cryptate ratio)*1000.\n(§3) NUMB RNA or U1A target RNA was titrated starting from 1000 nM in 2× dilution over 9 points against MSI2 5 nM+NUMB-Biotin5′ 1.25 nM. […] NUMB RNA or U1A target RNA was titrated starting from 1000 nM in 2× dilution over 9 points against U1A 5 nM+U1A Target-Biotin5′ 1.25 nM. […]"}
{"molecule": "NUMB RNA: non-biotinylated NUMB RNA that competes with NUMB-Biotin 5′ RNA to bind the MSI2 protein (UAGGUAGUAGUUUUA; non-biotinylated RNA, further chemistry not given here)", "displacement of the binding signal between MSI2 protein and NUMB-Biotin5′ RNA": "displaced the binding signal"}
{"target": "T2, U1A protein and U1A target-Biotin5′ RNA (Homo sapiens, UniProt P09012)", "T2 construct": "purchased LS Bio G19194-10", "T2 sequence (P09012 whole entry, species assumed)": "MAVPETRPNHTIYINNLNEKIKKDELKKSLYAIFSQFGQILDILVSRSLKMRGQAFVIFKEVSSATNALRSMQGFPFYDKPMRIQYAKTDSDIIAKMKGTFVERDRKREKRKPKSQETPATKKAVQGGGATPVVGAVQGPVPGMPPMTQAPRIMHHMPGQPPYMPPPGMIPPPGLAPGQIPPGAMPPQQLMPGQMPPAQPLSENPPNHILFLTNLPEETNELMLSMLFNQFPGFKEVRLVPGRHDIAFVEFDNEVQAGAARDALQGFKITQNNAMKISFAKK", "assay": "U1A:Target-CTRL RNA competition assay, HTRF (384 well plate)", "format": "binding", "conditions": "competitor RNA titrated from 1000 nM, 2× dilution over 9 points; U1A 5 nM + U1A Target-Biotin5′ 1.25 nM", "procedure": "as §1, §2, §3"}
{"molecule": "NUMB RNA: non-biotinylated NUMB RNA that competes with NUMB-Biotin 5′ RNA to bind the MSI2 protein (UAGGUAGUAGUUUUA; non-biotinylated RNA, further chemistry not given here)", "displacement of the binding signal between U1A protein and U1A target-Biotin5′ RNA": "did not displace the binding signal"}
{"target": "T3, MSI2-RNA interaction (Homo sapiens, UniProt Q96DH6)", "T3 construct": "purchased LS Bio G2396", "T3 sequence (Q96DH6 whole entry)": "as the sequence (Q96DH6 whole entry) above", "assay": "MSI2 TR-FRET assay, primary screen and triplicate confirmation", "format": "binding", "conditions": "identified by the method disclosed herein", "procedure": "In some embodiments, inhibitory compounds of MSI2-RNA interactions were identified using the methods disclosed herein. In a primary screening of small molecule compound libraries using the MSI2 binding TR-FRET assay, 194,914 compounds were screened at 15 μM final concentration for induced inhibition of MSI2-RNA interaction. Hit compounds were selected with a cut-off of at least 30% inhibition. Subsequently, after analysis of donor- and acceptor-channels, and removal of potential detection artefacts, 1,391 compounds were selected and confirmed by MSI2 and U1A TR-FRET assays in triplicates and at 15 μM concentration (Table 1).\n(§4) FIG. 6 illustrates the FRET assay principle for MSI2 and U1A. The NUMB RNA probe for MSI2 was selected based on prior scientific publications and has the following sequence: 5′[…]-Biotin (SEQ ID NO: 1) (Oncotarget, 8(63): 106587-106597 (2017). The RNA probe for U1A was designed based on an interaction study between U1A and RNA done by NMR (Structure 4(5): 621-631 (1996)) and has the following sequence: 5′[…]-Biotin (SEQ ID NO: 2). The underlined sequence represents the part which interacts with the protein, the sequence of AYYGCAC should fit into the groove of U1A according to the NMR studies. The remaining sequence without underline is a spacer. The assay developed provides robust TR-FRET readout.\nFIG. 7 illustrates the high throughput screening workflow. […] The hit cut-off criteria are >30% inhibition. The hit triaging is based on analysis of donor- and acceptor-channels, removal of potential detection artefacts. The hit confirmation is based on triplicate confirmation runs (15 μM) in MSI2 and U1A TR-FRET assays. The compound selection for dose-response is a dose-response testing in MSI2 and U1A to filter for compounds that have the drug potential. The hit selection for hit to lead (HTL) is based on QC on dose responsive hits SAR tractability, and model building for hit expansion."}
{"molecule": "CC(=O)N1CCC(NC(=O)c2cc(C)c(C)s2)CC1", "note": "[N-(1-acetylpiperidin-4-yl)-4,5-dimethylthiophene-2-carboxamide]", "inhibitor of MSI2-RNA interaction identified by the method": "inhibitors of MSI2-RNA interaction"}
{"molecule": "Cc1ccc(C)n1-c1ccc(SCC(=O)O)cc1", "note": "[2-{[4-(2,5-dimethyl-1H-pyrrol-1-yl)phenyl]sulfanyl}acetic acid]", "inhibitor of MSI2-RNA interaction identified by the method": "inhibitors of MSI2-RNA interaction"}
{"molecule": "Cc1cc(C)n2c(SCC(=O)c3cccc(N4CCCC4=O)c3)nnc2n1", "note": "[1-{3-[2-({5,7-dimethyl-[1,2,4]triazolo[4,3-a]pyrimidin-3-yl}sulfanyl)acetyl]phenyl}pyrrolidin-2-one]", "inhibitor of MSI2-RNA interaction identified by the method": "inhibitors of MSI2-RNA interaction"}
{"molecule": "O=c1cc(CN2CCn3c(nnc3-c3ccccc3)C2)[nH]c2ccnn12", "note": "[5-({3-phenyl-5H,6H, 7H,8H-[1,2,4]triazolo[4,3-a]pyrazin-7-yl}methyl)-4H,7H-pyrazolo[1,5-a]pyrimidin-7-one]", "inhibitor of MSI2-RNA interaction identified by the method": "inhibitors of MSI2-RNA interaction"}
{"molecule": "Cc1ccc(C)n1-c1sccc1C(=O)N1CC(C(N)=O)Oc2ccccc21", "note": "(stereo not drawn) [4-[2-(2,5-dimethyl-1H-pyrrol-1-yl)thiophene-3-carbonyl]-3,4-dihydro-2H-1,4-benzoxazine-2-carboxamide]", "inhibitor of MSI2-RNA interaction identified by the method": "inhibitors of MSI2-RNA interaction"}
{"target": "T4, Musashi RNA Binding Protein 2 (MSI2) (Homo sapiens, UniProt Q96DH6)", "T4 construct": "purchased LS Bio G2396", "T4 sequence (Q96DH6 whole entry)": "as above", "assay": "MSI2:NUMB-Biotin5′ RNA binding assay HTRF, 10-point duplicate dose response curves of 512 compounds (FIG. 14)", "conditions": "10-point duplicate curves, 100 μM to 5.6 nM, 3× dilution, MSI2 (His tag) 5 nM, NUMB-Biotin5′ RNA 1.25 nM, Streptavidin XL665 5 nM, His TB-Cryptate 0.6 nM, pH 7.3, read-out: MSI2 IC50 (normalized FRET ratio)", "description": "In some embodiments, a MSI2 binding assay was developed where streptavidin labeled with XL665 or d2 was used as the acceptor, and Terbium (Tb) cryptate was used as the donor. For example, in the MSI2 binding assay, NUMB RNA was biotinylated at the 5′ end to create NUMB-Biotin 5′ RNA, which was coupled to the XL665 or d2-labeled streptavidin acceptor through streptavidin-biotin interaction. The MSI2 protein was engineered to contain a His tag, which was coupled to the Tb cryptate donor through an anti-His antibody attached to the Tb cryptate. Due to the MSI2-NUMB RNA interaction, the XL665 or d2 acceptor was brought into proximity of the Tb cryptate donor, thus generating a detectable FRET signal. Parameters of the binding assay, including the concentrations of MSI2 and NUMB-Biotin 5′ RNA, were optimized. Thus, the interaction of the MSI2 protein to NUMB-Biotin 5′ RNA could create a detectable FRET signal that can be used for subsequent binding assays and screening for modulators of MSI2-RNA interactions.\nReagents and protein/peptide: MSI2-LS Bio G2396 (provided in 20 mM Tris-HCL pH 8.0, 150 mM NaCl, 10% glycerol, 1 mM DTT); U1A-LS Bio G19194-10 (provided in 16 mM HEPES, pH 7.6, 400 mM NaCl, 20% glycerol); NUMB 5′Biotin—(IDT); NUMB 5′—(IDT); U1A RNA 5′ Biotin—(IDT); U1A RNA 5′—(IDT); HEPES pH 7.3 (RNase/DNase free)—(Fisher—BP299); Molecular grade water (RNase/DNase free)—(Invitrogen-10977-95); DTT (molecular grade—RNase/DNase free)—(Promega-V3151); Pluronic F-127—(Sigma Aldrich SKU #P2443); NaCl (RNase/DNase free)—(Sigma—S3014); 6His Terbium (TB) Cryptate—(CisBio—61HI2TLA); Streptavidin XL665 (CisBio—610SAXLA); AlphaPlate-1536 well flat bottom plate, Light gray (Perkin Elmer #6004350); and AlphaScreen Histidine Detection Kit (Perkin Elmer, Cat. No. 6760619C) containing AlphaScreen Nickel Chelate Acceptor Beads (5 mg/ml), and AlphaScreen Streptavidin Donor Beads (5 mg/ml).\nas §4\nIC50 analysis of 512 compounds selected from the confirmation screen (MSI2:NUMB-Biotin5′) screen was performed. The 512 compounds were run in duplicate 10-point dose response curve with a high concentration of 100 μM and a low concentration of 5.6 nM. The total volume of the assay was 8 μl and all steps except for ECHO dispense were performed on Tempest disperser. 80 nL of compounds in DMSO was dispensed in 10 point titrations of 3× dilutions with the t concentration of 100 μM and the bottom concentration of 5.6 nM from 10 mM stock using ECHO acoustic dispenser-duplicate curves on the same assay plate. 2 μL of assay buffer was added, 2 μL of MSI2 (4× Conc.) final concentration of 5 nM was added, and incubated for 30 minutes. […]", "units": {"IC50": "nM"}}
{"molecule": "O=c1cc(CN2CCn3c(nnc3-c3ccccc3)C2)[nH]c2ccnn12", "note": "[WXHTS0101810, 5-({3-phenyl-5H,6H, 7H,8H-[1,2,4]triazolo[4,3-a]pyrazin-7-yl}methyl)-4H,7H-pyrazolo[1,5-a]pyrimidin-7-one]", "IC50": 850}
{"molecule": "CC(=O)N1CCC(NC(=O)c2cc(C)c(C)s2)CC1", "note": "[WXHTS0092123, N-(1-acetylpiperidin-4-yl)-4,5-dimethylthiophene-2-carboxamide]", "IC50": 920}
{"molecule": "Cc1ccc(C)n1-c1sccc1C(=O)N1CC(C(N)=O)Oc2ccccc21", "note": "(stereo not drawn) [WXHTS0047719, 4-[2-(2,5-dimethyl-1H-pyrrol-1-yl)thiophene-3-carbonyl]-3,4-dihydro-2H-1,4-benzoxazine-2-carboxamide]", "IC50": 710}
{"molecule": "Cc1cc(C)n2c(SCC(=O)c3cccc(N4CCCC4=O)c3)nnc2n1", "note": "[WXHTS0080223, 1-{3-[2-({5,7-dimethyl-[1,2,4]triazolo[4,3-a]pyrimidin-3-yl}sulfanyl)acetyl]phenyl}pyrrolidin-2-one]", "IC50": 850}
{"molecule": "Cc1ccc(C)n1-c1ccc(SCC(=O)O)cc1", "note": "[WXHTS0063086, 2-{[4-(2,5-dimethyl-1H-pyrrol-1-yl)phenyl]sulfanyl}acetic acid]", "IC50": 470}
